How the values were obtained:
Test in all cases: Test C greenhouse herbicide test, pre- and postemergence
Format in all cases: in vivo
soybean (Glycine max) = test system: soybean (Glycine max)
Text: (§1) Seeds of plant species selected from blackgrass (Alopecurus myosuroides), ryegrass, Italian (Italian ryegrass, Lolium multiflorum), wheat (winter wheat, Triticum aestivum), galium (catchweed bedstraw, Galium aparine), corn (Zea mays), large crabgrass, large (large crabgrass, Digitaria sanguinalis), foxtail, giant (giant foxtail, Setaria faberii), johnsongrass (Sorghum halepense), lambsquarters (Chenopodium album), morningglory (Ipomoea coccinea), nutsedge, yellow (yellow nutsedge, Cyperus esculentus), pigweed (Amaranthus retroflexus), ragweed (common ragweed, Ambrosia elatior), soybean (Glycine max), barnyardgrass (Echinochloa crus-galli), oilseed rape (Brassica napus), waterhemp (common waterhemp, Amaranthus rudis), and velvetleaf (Abutilon theophrasti) were planted into a blend of loam soil and sand and treated preemergence with test chemicals formulated in a non-phytotoxic solvent mixture which included a surfactant.
(§2) At the same time, plants selected from these crop and weed species and also chickweed (common chickweed, Stellaria media), kochia (Kochia scoparia), and oat, wild (wild oat, Avena fatua), were planted in pots containing Redi-Earth® planting medium (Scotts Company, 14111 Scottslawn Road, Marysville, Ohio 43041) comprising spaghnum peat moss, vermiculite, wetting agent and starter nutrients and treated with postemergence applications of test chemicals formulated in the same manner. Plants ranged in height from 2 to 18 cm (1- to 4-leaf stage) for postemergence treatments. Treated plants and controls were maintained in a greenhouse for 13 to 15 d, after which time all species were compared to controls and visually evaluated. Plant response ratings, summarized in Table C, are based on a scale of 0 to 100 where 0 is no effect and 100 is complete control. A dash (-) response means no test result.

[1] = test system: waterhemp (common waterhemp, Amaranthus rudis)
Text: as §1, §2

[2] = test system: wheat (winter wheat, Triticum aestivum)
Text: as §1, §2

corn (Zea mays) = test system: corn (Zea mays)
Text: as §1, §2

[3] = test system: blackgrass (Alopecurus myosuroides)
Text: as §1, §2

[4] = test system: lambsquarters (Chenopodium album)
Text: as §1, §2

[5] = test system: pigweed (Amaranthus retroflexus)
Text: as §1, §2

[6] = test system: nutsedge, yellow (yellow nutsedge, Cyperus esculentus)
Text: as §1, §2

[7] = test system: galium (catchweed bedstraw, Galium aparine)
Text: as §1, §2

[8] = test system: barnyardgrass (Echinochloa crus-galli)
Text: as §1, §2

[9] = test system: morningglory (Ipomoea coccinea)
Text: as §1, §2

[10] = test system: ryegrass, Italian (Italian ryegrass, Lolium multiflorum)
Text: as §1, §2

[11] = test system: velvetleaf (Abutilon theophrasti)
Text: as §1, §2

[12] = test system: foxtail, giant (giant foxtail, Setaria faberii)
Text: as §1, §2

[13] = test system: crabgrass, large (large crabgrass, Digitaria sanguinalis)
Text: as §1, §2

[14] = Postemergence, 125 g ai/ha, scale 0 to 100, 0 is no effect, 100 is complete control
[15] = Postemergence, 250 g ai/ha, scale 0 to 100, 0 no effect, 100 complete control, 13 to 15 d
[16] = Preemergence, 31 g ai/ha, scale 0 to 100, 0 is no effect, 100 is complete control
[17] = Preemergence, 62 g ai/ha, scale 0 to 100, 0 is no effect, 100 is complete control
[18] = Preemergence, 125 g ai/ha, scale 0 to 100, 0 is no effect, 100 is complete control
[19] = Preemergence, 250 g ai/ha, scale 0 to 100, 0 no effect, 100 complete control
[20] = postemergence, 62 g ai/ha, scale 0 to 100, 0 no effect, 100 complete control
[21] = Postemergence, 31 g ai/ha, 0 to 100 scale (0 no effect, 100 complete control)
[22] = Postemergence, 31 g ai/ha, scale 0 to 100 (0 no effect, 100 complete control)
[23] = Postemergence, 62 g ai/ha, 0 to 100 scale (0 no effect, 100 complete control)
[24] = Postemergence, 250 g ai/ha, scale 0 to 100, 0 is no effect, 100 is complete control
[25] = postemergence, 125 g ai/ha, scale 0 to 100, 0 no effect, 100 complete control

## Cc1sc2ccccc2c1-c1c(O)c(Cl)nn(C)c1=O [Compound 89]
Soybean (Glycine max); [14]
  Plant response rating, Soybean: 0
Soybean (Glycine max); [15]
  Plant response rating, Soybean: 0
Soybean (Glycine max); [16]
  Plant response rating, Soybean: 0
Soybean (Glycine max); [17]
  Plant response rating, Soybean: 0
Soybean (Glycine max); [18]
  Plant response rating, Soybean: 0
Soybean (Glycine max); [19]
  Soybean plant response rating: 5
Soybean (Glycine max); [20]
  Soybean plant response rating: 0
[1]; [14]
  Plant response rating, Waterhemp: 50
[1]; [15]
  Plant response rating, Waterhemp: 50
[1]; [16]
  Plant response rating, Waterhemp: 75
[1]; [17]
  Plant response rating, Waterhemp: 50
[1]; [18]
  Plant response rating, Waterhemp: 40
[1]; [19]
  Waterhemp plant response rating: 75
[1]; [20]
  Waterhemp plant response rating: 40
[2]; [14]
  Plant response rating, Wheat: 0
[2]; [15]
  Plant response rating, Wheat: 0
[2]; [16]
  Plant response rating, Wheat: 0
[2]; [17]
  Plant response rating, Wheat: 0
[2]; [18]
  Plant response rating, Wheat: 0
[2]; [19]
  Wheat plant response rating: 0
[2]; [20]
  Wheat plant response rating: 0
Corn (Zea mays); [21]
  Corn plant response rating: 5
Corn (Zea mays); [14]
  Plant response rating, Corn: 10
Corn (Zea mays); [15]
  Plant response rating, Corn: 5
Corn (Zea mays); [16]
  Plant response rating, Corn: 0
Corn (Zea mays); [17]
  Plant response rating, Corn: 0
Corn (Zea mays); [18]
  Plant response rating, Corn: 0
Corn (Zea mays); [19]
  Corn plant response rating: 0
Corn (Zea mays); [20]
  Corn plant response rating: 5
[3]; [21]
  Blackgrass plant response rating: 0
[3]; [14]
  Plant response rating, Blackgrass: 0
[3]; [15]
  Plant response rating, Blackgrass: 5
[3]; [16]
  Plant response rating, Blackgrass: 5
[3]; [17]
  Plant response rating, Blackgrass: 40
[3]; [18]
  Plant response rating, Blackgrass: 40
[3]; [19]
  Blackgrass plant response rating: 45
[3]; [20]
  Blackgrass plant response rating: 0
[4]; [14]
  Plant response rating, Lambsquarters: 100
[4]; [15]
  Plant response rating, Lambsquarters: 100
[4]; [16]
  Plant response rating, Lambsquarters: 40
[4]; [17]
  Plant response rating, Lambsquarters: 85
[4]; [18]
  Plant response rating, Lambsquarters: 98
[4]; [19]
  Lambsquarters plant response rating: 90
[4]; [20]
  Lambsquarters plant response rating: 90
[5]; [14]
  Plant response rating, Pigweed: 80
[5]; [15]
  Plant response rating, Pigweed: 95
[5]; [16]
  Plant response rating, Pigweed: 95
[5]; [17]
  Plant response rating, Pigweed: 100
[5]; [18]
  Plant response rating, Pigweed: 100
[5]; [19]
  Pigweed plant response rating: 100
[5]; [20]
  Pigweed plant response rating: 75
[6]; [14]
  Plant response rating, Nutsedge, Yellow: 70
[6]; [15]
  Plant response rating, Nutsedge, Yellow: 75
[6]; [16]
  Plant response rating, Nutsedge, Yellow: 60
[6]; [17]
  Plant response rating, Nutsedge, Yellow: 75
[6]; [18]
  Plant response rating, Nutsedge, Yellow: 80
[6]; [19]
  Nutsedge, Yellow plant response rating: 90
[6]; [20]
  Nutsedge, Yellow plant response rating: 60
[7]; [14]
  Plant response rating, Galium: 95
[7]; [15]
  Plant response rating, Galium: 95
[7]; [16]
  Plant response rating, Galium: 95
[7]; [17]
  Plant response rating, Galium: 98
[7]; [18]
  Plant response rating, Galium: 98
[7]; [19]
  Galium plant response rating: 98
[7]; [20]
  Galium plant response rating: 95
[8]; [21]
  Barnyardgrass plant response rating: 5
[8]; [14]
  Plant response rating, Barnyardgrass: 20
[8]; [15]
  Plant response rating, Barnyardgrass: 40
[8]; [16]
  Plant response rating, Barnyardgrass: 5
[8]; [17]
  Plant response rating, Barnyardgrass: 15
[8]; [18]
  Plant response rating, Barnyardgrass: 25
[8]; [19]
  Barnyardgrass plant response rating: 65
[8]; [20]
  Barnyardgrass plant response rating: 15
[9]; [14]
  Plant response rating, Morningglory: 98
[9]; [15]
  Plant response rating, Morningglory: 98
[9]; [16]
  Plant response rating, Morningglory: 80
[9]; [17]
  Plant response rating, Morningglory: 85
[9]; [18]
  Plant response rating, Morningglory: 85
[9]; [19]
  Morningglory plant response rating: 90
[9]; [20]
  Morningglory plant response rating: 95
[10]; [14]
  Plant response rating, Ryegrass, Italian: 75
[10]; [15]
  Plant response rating, Ryegrass, Italian: 80
[10]; [16]
  Plant response rating, Ryegrass, Italian: 20
[10]; [17]
  Plant response rating, Ryegrass, Italian: 80
[10]; [18]
  Plant response rating, Ryegrass, Italian: 90
[10]; [19]
  Ryegrass, Italian plant response rating: 90
[10]; [20]
  Ryegrass, Italian plant response rating: 75
[11]; [14]
  Plant response rating, Velvetleaf: 75
[11]; [15]
  Plant response rating, Velvetleaf: 80
[11]; [16]
  Plant response rating, Velvetleaf: 70
[11]; [17]
  Plant response rating, Velvetleaf: 80
[11]; [18]
  Plant response rating, Velvetleaf: 90
[11]; [19]
  Velvetleaf plant response rating: 85
[11]; [20]
  Velvetleaf plant response rating: 75
[12]; [14]
  Plant response rating, Foxtail, Giant: 20
[12]; [15]
  Plant response rating, Foxtail, Giant: 30
[12]; [16]
  Plant response rating, Foxtail, Giant: 10
[12]; [17]
  Plant response rating, Foxtail, Giant: 60
[12]; [18]
  Plant response rating, Foxtail, Giant: 65
[12]; [19]
  Foxtail, Giant plant response rating: 75
[12]; [20]
  Foxtail, Giant plant response rating: 10
[13]; [14]
  Plant response rating, Crabgrass, Large: 5
[13]; [15]
  Plant response rating, Crabgrass, Large: 10
[13]; [16]
  Plant response rating, Crabgrass, Large: 20
[13]; [17]
  Plant response rating, Crabgrass, Large: 0
[13]; [18]
  Plant response rating, Crabgrass, Large: 25
[13]; [19]
  Crabgrass, Large plant response rating: 75
[13]; [20]
  Crabgrass, Large plant response rating: 5

## Cc1nn(C)c(=O)c(-c2c([N+](=O)[O-])ccc3ccccc23)c1O [Compound 165]
Soybean (Glycine max); [22]
  Plant response rating, Soybean: 10
Soybean (Glycine max); [23]
  Soybean plant response rating: 10
Soybean (Glycine max); [24]
  Plant response rating, Soybean: 15
Soybean (Glycine max); [25]
  Soybean plant response rating: 15
[1]; [22]
  Plant response rating, Waterhemp: 65
[1]; [23]
  Waterhemp plant response rating: 70
[1]; [24]
  Plant response rating, Waterhemp: 75
[1]; [25]
  Waterhemp plant response rating: 75
[2]; [22]
  Plant response rating, Wheat: 5
[2]; [23]
  Wheat plant response rating: 5
[2]; [24]
  Plant response rating, Wheat: 15
[2]; [25]
  Wheat plant response rating: 10
Corn (Zea mays); [22]
  Plant response rating, Corn: 0
Corn (Zea mays); [23]
  Corn plant response rating: 0
Corn (Zea mays); [24]
  Plant response rating, Corn: 5
Corn (Zea mays); [25]
  Corn plant response rating: 0
[3]; [22]
  Plant response rating, Blackgrass: 5
[3]; [23]
  Blackgrass plant response rating: 15
[3]; [24]
  Plant response rating, Blackgrass: 25
[3]; [25]
  Blackgrass plant response rating: 20
[4]; [22]
  Plant response rating, Lambsquarters: 70
[4]; [23]
  Lambsquarters plant response rating: 75
[4]; [24]
  Plant response rating, Lambsquarters: 98
[4]; [25]
  Lambsquarters plant response rating: 85
[5]; [22]
  Plant response rating, Pigweed: 75
[5]; [23]
  Pigweed plant response rating: 70
[5]; [24]
  Plant response rating, Pigweed: 85
[5]; [25]
  Pigweed plant response rating: 75
[6]; [22]
  Plant response rating, Nutsedge, Yellow: 20
[6]; [23]
  Nutsedge, Yellow plant response rating: 30
[6]; [24]
  Plant response rating, Nutsedge, Yellow: 35
[6]; [25]
  Nutsedge, Yellow plant response rating: 25
[7]; [22]
  Plant response rating, Galium: 85
[7]; [23]
  Galium plant response rating: 85
[7]; [24]
  Plant response rating, Galium: 100
[7]; [25]
  Galium plant response rating: 98
[8]; [22]
  Plant response rating, Barnyardgrass: 10
[8]; [23]
  Barnyardgrass plant response rating: 15
[8]; [24]
  Plant response rating, Barnyardgrass: 25
[8]; [25]
  Barnyardgrass plant response rating: 25
[9]; [22]
  Plant response rating, Morningglory: 75
[9]; [23]
  Morningglory plant response rating: 70
[9]; [24]
  Plant response rating, Morningglory: 95
[9]; [25]
  Morningglory plant response rating: 85
[10]; [22]
  Plant response rating, Ryegrass, Italian: 40
[10]; [23]
  Ryegrass, Italian plant response rating: 50
[10]; [24]
  Plant response rating, Ryegrass, Italian: 70
[10]; [25]
  Ryegrass, Italian plant response rating: 55
[11]; [22]
  Plant response rating, Velvetleaf: 20
[11]; [23]
  Velvetleaf plant response rating: 25
[11]; [24]
  Plant response rating, Velvetleaf: 50
[11]; [25]
  Velvetleaf plant response rating: 20
[12]; [22]
  Plant response rating, Foxtail, Giant: 0
[12]; [23]
  Foxtail, Giant plant response rating: 5
[12]; [24]
  Plant response rating, Foxtail, Giant: 25
[12]; [25]
  Foxtail, Giant plant response rating: 15
[13]; [22]
  Plant response rating, Crabgrass, Large: 0
[13]; [23]
  Crabgrass, Large plant response rating: 5
[13]; [24]
  Plant response rating, Crabgrass, Large: 20
[13]; [25]
  Crabgrass, Large plant response rating: 20
